Patent US20080064088A1, “DEVICES AND METHODS FOR PHARMACOKINETIC-BASED CELL CULTURE SYSTEM” (priority 2006, published 2008)
“Also recorded” adds a separate entry of the source.

Legend:
[1] = system: HCT-116 cells; test: Traditional in vitro cell culture assay, HCT-116 on poly-lysine treated glass coverslips; assay type: cell-based, human; details: for cytotoxicity to HCT-116 cells, traditional cell culture assay: 48 hr incubation
Method: (§1) FIG. 16 Tegafur dose response. Chips were seeded with HepG2-C3A cells in the liver compartment and HCT-116 colon cancer cells in the target tissues compartment. The chips were treated with indicated concentrations of tegafur for 24 hours. The first graph (FIG. 16A) is a plot of percentage dead cells vs. tegafur or 5-FU concentration after 24 hours of re-circulation on the chip. The second graph (FIG. 16B) is a similar dose response using a traditional in vitro cell culture assay with HCT 116 cells using a 48 hour exposure. HCT-116 cells were seeded on poly-lysine treated glass coverslips and exposed to either tegafur or 5-FU at the indicated concentrations. After a 48 hr incubation, coverslips were treated as described above and the percentage of cell death was determined.
To measure the cytotoxic effects of tegafur against colon cancer cells, the microscale chip was prepared with HepG2-C3A cells in the liver compartment and HCT-116 human colon cancer cells in the target tissue compartment. Tegafur was added to the re-circulating medium at various concentrations for 24 hours and the cells labeled with Hoechst 33342, a membrane permeable DNA dye, and ethidium homodimer, a membrane impermeable DNA dye (see Methods Section).

[2] = system: HCT-116 human colon cancer cells; details: for cell death of HCT-116 cells, chip seeded with HCT-116 cells only: no cells in the liver compartment, 24 hours
Method: as §1, with “Chips were seeded with HepG2-C3A cells in the liver compartment and HCT-116 colon cancer cells in the target tissues compartment.” left out
(§2) LIVE/DEAD stain is a two-component stain consisting of calcein AM and ethidium homodimer. Living cells actively hydrolyze the acetoxymethyl ester (AM) moiety of calcein AM to produce bright green fluorescence of calcein. In contrast, cells that have compromised membrane integrity allow the normally membrane impermeant ethidium homodimer to stain the nucleus of dead or dying cells fluorescent red. The cell permeant nuclear stain, Hoechst 33342 acts as a general stain for all cells. Together with the appropriate filter sets, living cells fluoresce green, dying or dead cells red, and all cells are quantified by a blue nuclear fluorescence. For experiments described herein, trypan blue was used at 0.2% (w/v), calcein AM at 1:20,000, propidium iodide at 1:5,000, and Hoechst 33342 at 10 μg/ml. Cells were visualized with a M2Bio stereofluorescence microscope (Zeiss). All experiments were repeated at least three times and measurements done in triplicate.
[…] Tegafur was added to the re-circulating medium at various concentrations for 24 hours and the cells labeled with Hoechst 33342, a membrane permeable DNA dye, and ethidium homodimer, a membrane impermeable DNA dye (see Methods Section).

[3] = system: HCT116 cells; test: LIVE/DEAD cytotoxicity assay on microscale chip system; assay type: cell-based, human; details: 1 μM, 24 hour treatment, compared to untreated control cell chips
Description: as §2
(§3) Two different assays to detect apoptosis were investigated. The first assay was the immunofluorescence-based terminal deoxynucleotidyl transferase BrdU nick end labeling (TUNEL) technique available in kit form as APOPTAG™ (Intergen Co., MA) (see Methods section).

[4] = system: HepG2/C3A cells in the liver compartment and HCT116 cells in the target tissues compartment; test: Annexin V-FITC apoptosis assay on microscale chip system; assay type: cell-based, human; details: 1 μM, 6-hour treatment, compared to untreated control cell chips
Method: With the microscale chip, annexin V-FITC labeling was visualized directly on-chin, by first flushing the system with PBS, then recirculating annexin V-FITC (10 μg/ml in annexin V binding buffer, Clontech) for 30 min. Cells were then visualized directly using a FITC filter set.
The annexin V-FITC was used to detect apoptosis in the microscale chip system as described in the Methods section. Briefly, the microscale chip cell chips were seeded with HepG2/C3A cells in the liver compartment and HCT116 cells in the target tissues compartment. Cell chips were loaded onto the microscale chip system and treated with and without 1 μM staurosporine as described above. After a 6-hour incubation, the re-circulating medium was switched to PBS containing Annexin V-FITC and Hoechst 33342 and allowed to flow through the system for 30 minutes. Cell chips were removed from the acrylic housing and visualized under a fluorescent microscope. Cells were visualized under a fluorescent microscope and fluorescent images of identical fields were obtained using the appropriate filter sets.

[5] = system: HepG2/C3A cells; test: LIVE/DEAD assay on poly-D-lysine treated glass coverslips; assay type: cell-based, human; details: 1 μM, 24 hours
Description: as §2
The LIVE/DEAD assay was optimized (see Methods section) using cells grown on glass coverslips. Briefly, HepG2/C3A cells were seeded onto poly-D-lysine treated glass coverslips and treated with and without 1 μM staurosporine for 24 hours. […]

[6] = system: HCT116 cells; test: APOPTAG (TUNEL) apoptosis assay on microscale chip system; assay type: cell-based, human; details: 1 μM, 24 hour exposure, compared to untreated controls
Description: (§4) In contrast to annexin V labeling, the APOPTAG™ kit (Intergen Co., MA) uses terminal deoxynucleotidyl transferase to label free 3′-OH DNA termini exposed during apoptotic DNA degradation and visualization using immunofluorescence (Li, X., Traganos, F., Melamed, M. R., and Darzynkiewicz, Z. (1995). Single-step procedure for labeling DNA strand breaks with flourescein-or BODIPY-conjugated deoxynucleotides: detection of apoptosis and bromodeoxyuridine incorporation. Cytometry 20, 172-180). Although this method is highly specific for apoptosis, the procedure cannot be done on-chip due to the fixation and incubation steps. Briefly, microscale chips were run under specified experimental conditions, the cell chips were removed from their housing units, fixed in 1% paraformaldehyde and processed with the APOPTAG™ kit using the manufacturer's protocol.
as §3, with “section). The assay was first optimized using cells grown on glass coverslips. Briefly, HepG2/C3A cells were seeded onto poly-D-lysine treated glass coverslips and treated with and without staurosporine. Coverslips were processed as described (see Methods section). […]” for “section).”

[7] = system: HepG2/C3A cells; test: APOPTAG (TUNEL) apoptosis assay on glass coverslips; assay type: cell-based, human; details: 1 μM, 24-hour incubation, compared to untreated controls
Description: as §4
as §3, with “section). The assay was first optimized using cells grown on glass coverslips. Briefly, HepG2/C3A cells were seeded onto poly-D-lysine treated glass coverslips and treated with and without staurosporine. Coverslips were processed as described (see Methods section). […]” for “section).”

[8] = system: HT29 human colon cancer cells; test: Microscale chip, HepG2-C3A liver compartment and HT29 target tissue compartment, live/dead fluorescence; assay type: cell-based; details: 24 hours; for efficacy against HT-29 colon cancer cells (mutant p53) in the chip: chip with HepG2-C3A liver compartment
Description: as §2

## O=c1[nH]cc(F)c(=O)[nH]1 [5-FU, 5-fluorouracil]
[1]
  exposure at which cytotoxicity was observed, traditional cell culture assay: 48 h
  cytotoxicity to HCT-116 cells, traditional cell culture assay: triggered cell death
[2]
  cell death of HCT-116 cells, chip seeded with HCT-116 cells only: caused substantial cell death

## CN[C@@H]1C[C@H]2O[C@@](C)([C@@H]1OC)n1c3ccccc3c3c4c(c5c6ccccc6n2c5c31)C(=O)NC4 [Staurosporine]
[3]
  cell death of HCT116 cells (LIVE/DEAD) on chip: Significant cell death; also recorded: significant apoptosis (or cytotoxicity)
[4]
  apoptosis (annexin V-FITC) on chip: significant apoptosis
[5]
  cell death of HepG2/C3A cells (LIVE/DEAD): clearly cause cell death
[6]
  apoptosis of HCT116 cells (APOPTAG) on chip: significant apoptosis (or cytotoxicity)
[7]
  apoptosis of HepG2/C3A cells (APOPTAG): significant apoptosis

## CC1=C(CC(=O)O)c2cc(F)ccc2/C1=C\c1ccc([S+](C)[O-])cc1 (stereo not drawn) [Sulindac, sulindac sulfoxide]
[8]; One hundred micromoles in re-circulating medium, absence of the HepG2-C3A liver cells
  cell death of HT29 cells in the chip: minimal levels of cell death
[8]
  efficacy against HT-29 colon cancer cells (mutant p53) in the chip: effective

## O=c1[nH]c(=O)n(C2CCCO2)cc1F (stereo not drawn) [Tegafur, 5-fluoro-1-(2-tetrahydrofuryl)-2,4(1H,3H)-pyrimidinedione]
[8]
  efficacy against HT-29 colon cancer cells (mutant p53) in the chip: ineffective
[1]
  cytotoxicity to HCT-116 cells, traditional cell culture assay: ineffective
[2]
  cytotoxicity to HCT-116 cells in the microscale chip: cytotoxic to HCT-116 cells in a dose-dependent fashion
  exposure at which cytotoxicity was observed, microscale chip: 24 h
  cell death of HCT-116 cells, chip seeded with HCT-116 cells only: did not cause significant cell death
